The test system of assay [1] is TNBS-induced colitis. Nature of the assay: Weight loss in TNBS-colitis model. Type of assay: in vivo. The note with it: TNBS-colitis mice; for initial body weight loss: compared to vehicle-control treated TNBS-colitis animals; for average body weight (of initial body weight) at day 3: vehicle-treated approximately 92%. The text has this: The effectiveness of compounds and methods of the present invention on intestinal barrier protection and treatment of inflammatory bowel disease (IBD) in TNBS (2,4,6-trinitrobenzene sulfonic acid)-induced colitis, an established animal model of inflammatory bowel disease, was examined. TNBS-induced colitis was induced in mice using a modification of techniques previously described. (See Morris et al (1989) Gastroenterology 96:795-803; Boirivant et al (1998) J Exp Med 188:1929-1939; Karhausen et al (2004) J Clin Invest 114:1098-1106.) Mice were shaved on the abdomen (causing total depletion of hair and microlesions) and were then sensitized to subsequent treatment by epicutaneous application of 1% TNBS (Sigma-Aldrich) in 100% ethanol on day minus 7. Seven days later, on day 0, animals were sedated with a 2.5% Tribromoethanol solution in phosphate-buffered saline (14 μl/g body weight), followed by intrarectal administration of a 2.5% TNBS solution in 50% ethanol (5 μl/g body weight). Administration of the 2.5% TNBS solution was carried out using an epidural catheter ([…] Plus Epidural Catheter, Arrow International), which was inserted approximately 6 cm ab ano followed by release of the TNBS solution. To ensure the continuance of the TNBS solution in the colon, mice were suspended in a vertical position for at least 5 minutes following administration. Vehicle control animals received a corresponding volume of 50% ethanol solution alone. Unless otherwise indicated, compounds of the invention were administered to animals intraperitoneally (i.p.) as a solution. Animals were dosed with compound (40 mg/kg/day or 20 mg/kg/day) on day minus 1, day 0, and day 1, or exclusively on day 0 and day 1, by i.p. injection. On day 0, TNBS treatment was performed on animals 4 hours after injection of compound. The effect of methods and compounds of the present invention on weight loss associated with inflammatory bowel disease was studied using an established animal model of colitis (described above in Example 1). Monitoring weight loss is a reliable method to assess TNBS-colitis severity in this animal model, as previously described. (See Neurath et al (2000) Int Rev Immunol 19:51-62.) Animals were administered Compound A (20 mg/kg or 40 mg/kg, i.p.) or vehicle control on day minus 1, day 0, and day 1. TNBS-colitis was induced in mice on day 0, as described above in Example 1. Body weight of the mice was monitored following induction of TNBS-colitis. […] Animal body weight was monitored each day for 3 days.

Assay [2] relates to TNBS-induced colitis. Nature of the assay: Colon length shortening in TNBS-colitis model. Particulars: TNBS-colitis mice, vehicle-treated greater than 17%. Type of assay: in vivo. From the text: The effectiveness of compounds and methods of the present invention on intestinal barrier protection and treatment of inflammatory bowel disease (IBD) in TNBS (2,4,6-trinitrobenzene sulfonic acid)-induced colitis, an established animal model of inflammatory bowel disease, was examined. TNBS-induced colitis was induced in mice using a modification of techniques previously described. (See Morris et al (1989) Gastroenterology 96:795-803; Boirivant et al (1998) J Exp Med 188:1929-1939; Karhausen et al (2004) J Clin Invest 114:1098-1106.) Mice were shaved on the abdomen (causing total depletion of hair and microlesions) and were then sensitized to subsequent treatment by epicutaneous application of 1% TNBS (Sigma-Aldrich) in 100% ethanol on day minus 7. Seven days later, on day 0, animals were sedated with a 2.5% Tribromoethanol solution in phosphate-buffered saline (14 μl/g body weight), followed by intrarectal administration of a 2.5% TNBS solution in 50% ethanol (5 μl/g body weight). Administration of the 2.5% TNBS solution was carried out using an epidural catheter ([…] Plus Epidural Catheter, Arrow International), which was inserted approximately 6 cm ab ano followed by release of the TNBS solution. […] Colon length was determined by measurement of the distance from the most distal aspect of the cecum to the most terminal aspect of the rectum on day 3 post-induction of TNBS-colitis.

Where [3] appears, read: 20 mg/kg i.p. on day minus 1, day 0, day 1.
Setting [4] is: 40 mg/kg i.p. on day minus 1, day 0, day 1.

Molecules are shown by their SMILES.

As to `O=C(O)CNC(=O)c1ncc2cc(Sc3ccccc3)ccc2c1O` [Compound A, [(4-Hydroxy-7-phenylsulfanyl-isoquinoline-3-carbonyl)-amino]-acetic acid], the “initial body weight loss” value with TNBS-induced colitis [1] (setting [3]) and with TNBS-induced colitis [1] (setting [4]) was “reduction in the extent of initial body weight loss” throughout. The results for the “average body weight (of initial body weight) at day 3” value in the assay with TNBS-induced colitis [1] (setting [3]) and with TNBS-induced colitis [1] (setting [4]) were “approximately 95%” and approximately 97%, respectively. Moreover, in the assay on TNBS-induced colitis [1] (20 mg/kg or 40 mg/kg i.p. on day minus 1, day 0, day 1, compared to vehicle/control-treated TNBS-colitis animals), the “body weight gain (recovery from weight loss) by day 3” value is recorded as “greater increase in body weight gain”. In addition, the “average decrease in colon length at day 3” value was “approximately 12%” in the assay with TNBS-induced colitis [2] (setting [3]) and approximately 8% in the assay on TNBS-induced colitis [2] (setting [4]).

The record behind these values is patent US8962530B2, “Inflammatory bowel disease therapies” (Regents of the University of Colorado, priority 2007, dated 2015).
